In PubChem BioAssay AID1259407 (Chemical Carcinogenesis Research Information System (CCRIS), 2018):
Active and inactive are the calls of the source. How the calls were made is not given here.

Test system: CCRIS mutagenicity, Ames/micronucleus/aberration tests
Assay: CCRIS mutagenicity studies
[1] = Test System: AMES SALMONELLA TYPHIMURIUM, Strain/Indicator: TA98, Metabolic Activation: NONE, Method: PREINCUBATION
[2] = Test System: AMES SALMONELLA TYPHIMURIUM, Strain/Indicator: TA98, Metabolic Activation: RAT, LIVER, S-9, AROCLOR 1254 (30%), Method: PREINCUBATION
[3] = Test System: AMES SALMONELLA TYPHIMURIUM, Strain/Indicator: TA100, Metabolic Activation: NONE, Method: PREINCUBATION
[4] = Test System: AMES SALMONELLA TYPHIMURIUM, Strain/Indicator: TA100, Metabolic Activation: RAT, LIVER, S-9, AROCLOR 1254 (30%), Method: PREINCUBATION
[5] = Test System: AMES SALMONELLA TYPHIMURIUM, Strain/Indicator: TA98, Metabolic Activation: NONE, Method: STANDARD PLATE
[6] = Test System: AMES SALMONELLA TYPHIMURIUM, Strain/Indicator: TA100, Metabolic Activation: NONE, Method: STANDARD PLATE

CCCCCCCCCCCC(=O)O
mutagenic call (Test System: AMES SALMONELLA TYPHIMURIUM, Strain/Indicator: TA97, Metabolic Activation: HAMSTER, LIVER, S-9, AROCLOR 1254 (10%), Method: PREINCUBATION): inactive; negative | mutagenic call (Test System: AMES SALMONELLA TYPHIMURIUM, Strain/Indicator: TA97, Metabolic Activation: HAMSTER, LIVER, S-9, AROCLOR 1254 (30%), Method: PREINCUBATION): inactive; negative | mutagenic call (Test System: AMES SALMONELLA TYPHIMURIUM, Strain/Indicator: TA97, Metabolic Activation: NONE, Method: PREINCUBATION): inactive; negative | mutagenic call (Test System: AMES SALMONELLA TYPHIMURIUM, Strain/Indicator: TA97, Metabolic Activation: RAT, LIVER, S-9, AROCLOR 1254 (10%), Method: PREINCUBATION): inactive; negative | mutagenic call (Test System: AMES SALMONELLA TYPHIMURIUM, Strain/Indicator: TA97, Metabolic Activation: RAT, LIVER, S-9, AROCLOR 1254 (30%), Method: PREINCUBATION): inactive; negative | mutagenic call (Test System: AMES SALMONELLA TYPHIMURIUM, Strain/Indicator: TA98, Metabolic Activation: HAMSTER, LIVER, S-9, AROCLOR 1254 (10 OR 30%), Method: PREINCUBATION): inactive; negative | mutagenic call [1]: inactive; negative | mutagenic call (Test System: AMES SALMONELLA TYPHIMURIUM, Strain/Indicator: TA98, Metabolic Activation: RAT, LIVER, S-9, AROCLOR 1254 (10%), Method: PREINCUBATION): inactive; negative | mutagenic call [2]: inactive; negative | mutagenic call (Test System: AMES SALMONELLA TYPHIMURIUM, Strain/Indicator: TA100, Metabolic Activation: HAMSTER, LIVER, S-9, AROCLOR 1254 (10 OR 30%), Method: PREINCUBATION): inactive; negative | mutagenic call [3]: inactive; negative | mutagenic call (Test System: AMES SALMONELLA TYPHIMURIUM, Strain/Indicator: TA100, Metabolic Activation: RAT, LIVER, S-9, AROCLOR 1254 (10%), Method: PREINCUBATION): inactive; negative | mutagenic call [4]: inactive; negative | mutagenic call (Test System: AMES SALMONELLA TYPHIMURIUM, Strain/Indicator: TA1535, Metabolic Activation: HAMSTER, LIVER, S-9, AROCLOR 1254 (10%), Method: PREINCUBATION): inactive; negative | mutagenic call (Test System: AMES SALMONELLA TYPHIMURIUM, Strain/Indicator: TA1535, Metabolic Activation: HAMSTER, LIVER, S-9, AROCLOR 1254 (30%), Method: PREINCUBATION): inactive; negative | mutagenic call (Test System: AMES SALMONELLA TYPHIMURIUM, Strain/Indicator: TA1535, Metabolic Activation: NONE, Method: PREINCUBATION): inactive; negative | mutagenic call (Test System: AMES SALMONELLA TYPHIMURIUM, Strain/Indicator: TA1535, Metabolic Activation: RAT, LIVER, S-9, AROCLOR 1254 (10%), Method: PREINCUBATION): inactive; negative | mutagenic call (Test System: AMES SALMONELLA TYPHIMURIUM, Strain/Indicator: TA1535, Metabolic Activation: RAT, LIVER, S-9, AROCLOR 1254 (30%), Method: PREINCUBATION): inactive; negative | mutagenic call (Test System: AMES SALMONELLA TYPHIMURIUM, Strain/Indicator: TA1537, Metabolic Activation: HAMSTER, LIVER, S-9, AROCLOR 1254 (10%), Method: PREINCUBATION): inactive; negative | mutagenic call (Test System: AMES SALMONELLA TYPHIMURIUM, Strain/Indicator: TA1537, Metabolic Activation: HAMSTER, LIVER, S-9, AROCLOR 1254 (30%), Method: PREINCUBATION): inactive; negative | mutagenic call (Test System: AMES SALMONELLA TYPHIMURIUM, Strain/Indicator: TA1537, Metabolic Activation: NONE, Method: PREINCUBATION): inactive; negative | mutagenic call (Test System: AMES SALMONELLA TYPHIMURIUM, Strain/Indicator: TA1537, Metabolic Activation: RAT, LIVER, S-9, AROCLOR 1254 (30%), Method: PREINCUBATION): inactive; negative

Cc1cc2cc3ccccc3cc2c2ccccc12
mutagenic call (Test System: AMES SALMONELLA TYPHIMURIUM, Strain/Indicator: TA100, Metabolic Activation: RAT, INTACT HEPATOCYTES, AROCLOR 1254, Method: PREINCUBATION): active; positive | mutagenic call (Test System: AMES SALMONELLA TYPHIMURIUM, Strain/Indicator: TA100, Metabolic Activation: RAT, NADPH-FORTIFIED HOMOGENIZED HEPATOCYTES, AROCLOR 1254, Method: PREINCUBATION): active; positive | mutagenic call (Test System: AMES SALMONELLA TYPHIMURIUM, Strain/Indicator: TA100, Metabolic Activation: RAT, SONICATED HEPATOCYTES, AROCLOR 1254, Method: PREINCUBATION): active; positive

OC(Nc1snc2ccccc12)C(Cl)(Cl)Cl (configuration not stated)
mutagenic call [5]: inactive; negative | mutagenic call (Test System: AMES SALMONELLA TYPHIMURIUM, Strain/Indicator: TA98, Metabolic Activation: S-9, Method: STANDARD PLATE): inactive; negative | mutagenic call [6]: inactive; negative | mutagenic call (Test System: AMES SALMONELLA TYPHIMURIUM, Strain/Indicator: TA100, Metabolic Activation: S-9, Method: STANDARD PLATE): inactive; negative | mutagenic call (Test System: AMES SALMONELLA TYPHIMURIUM, Strain/Indicator: TA1535, Metabolic Activation: NONE, Method: STANDARD PLATE): inactive; negative | mutagenic call (Test System: AMES SALMONELLA TYPHIMURIUM, Strain/Indicator: TA1535, Metabolic Activation: S-9, Method: STANDARD PLATE): inactive; negative | mutagenic call (Test System: AMES SALMONELLA TYPHIMURIUM, Strain/Indicator: TA1537, Metabolic Activation: NONE, Method: STANDARD PLATE): inactive; negative | mutagenic call (Test System: AMES SALMONELLA TYPHIMURIUM, Strain/Indicator: TA1537, Metabolic Activation: S-9, Method: STANDARD PLATE): inactive; negative

Nc1ccc(N=Nc2ccccc2)cc1
mutagenic call (Test System: AMES SALMONELLA TYPHIMURIUM, Strain/Indicator: TA98, Metabolic Activation: HAMSTER, LIVER, S-9, AROCLOR 1254 (30%), Method: PREINCUBATION): active; positive | mutagenic call [1]: inactive; negative | mutagenic call [5]: inactive; negative | mutagenic call (Test System: AMES SALMONELLA TYPHIMURIUM, Strain/Indicator: TA98, Metabolic Activation: RAT, LIVER, MICROSOMES, 4-AMINOAZOBENZENE, Method: PREINCUBATION): inactive; negative | mutagenic call (Test System: AMES SALMONELLA TYPHIMURIUM, Strain/Indicator: TA98, Metabolic Activation: RAT, LIVER, MICROSOMES, AROCLOR 1254, Method: PREINCUBATION): inactive; negative | mutagenic call (Test System: AMES SALMONELLA TYPHIMURIUM, Strain/Indicator: TA98, Metabolic Activation: RAT, LIVER, MICROSOMES, Method: PREINCUBATION): inactive; negative | mutagenic call [2]: active; positive | mutagenic call (Test System: AMES SALMONELLA TYPHIMURIUM, Strain/Indicator: TA98, Metabolic Activation: RAT, LIVER, S-9, AROCLOR 1254, Method: STANDARD PLATE): active; positive | mutagenic call (Test System: AMES SALMONELLA TYPHIMURIUM, Strain/Indicator: TA98, Metabolic Activation: RAT, LIVER, S-9, KC500 OR PHENOBARBITAL, Method: LIQUID SUSPENSION): active; positive | mutagenic call (Test System: AMES SALMONELLA TYPHIMURIUM, Strain/Indicator: TA98, Metabolic Activation: RAT, LIVER, S-9, PCB, Method: PREINCUBATION): active; positive | mutagenic call (Test System: AMES SALMONELLA TYPHIMURIUM, Strain/Indicator: TA100, Metabolic Activation: HAMSTER, LIVER, S-9, AROCLOR 1254 (30%), Method: PREINCUBATION): active; positive | mutagenic call [3]: inactive; negative | mutagenic call [6]: inactive; negative | mutagenic call [4]: inactive; negative | mutagenic call (Test System: AMES SALMONELLA TYPHIMURIUM, Strain/Indicator: TA100, Metabolic Activation: RAT, LIVER, S-9, AROCLOR 1254, Method: STANDARD PLATE): active; positive | mutagenic call (Test System: AMES SALMONELLA TYPHIMURIUM, Strain/Indicator: TA100, Metabolic Activation: RAT, LIVER, S-9, KC500 OR PHENOBARBITAL, Method: LIQUID SUSPENSION): active; positive | mutagenic call (Test System: AMES SALMONELLA TYPHIMURIUM, Strain/Indicator: TA100, Metabolic Activation: RAT, LIVER, S-9, PCB, Method: PREINCUBATION): active; positive | mutagenic call (Test System: AMES SALMONELLA TYPHIMURIUM, Strain/Indicator: TA1538, Metabolic Activation: RAT, LIVER, S-9, AROCLOR 1254, Method: STANDARD PLATE): active; positive | mutagenic call (Test System: UDS RODENT HEPATOCYTES, Strain/Indicator: THY INCORP (NON-S-PHASE), Method: AUTORADIOGRAPHY): active; positive

O=[N+]([O-])c1cc2c3c(c1)CCc1cc([N+](=O)[O-])cc(c1-3)CC2
mutagenic call (Test System: AMES SALMONELLA TYPHIMURIUM, Strain/Indicator: TA98(1,8-DNP6), Metabolic Activation: NONE, Method: STANDARD PLATE): active; positive | mutagenic call (Test System: AMES SALMONELLA TYPHIMURIUM, Strain/Indicator: TA98(NR), Metabolic Activation: NONE, Method: STANDARD PLATE): active; positive | mutagenic call [5]: active; positive

Cc1ccc(C)c2c3c(ccc12)C(O)C(O)C1OC31 (configuration not stated)
mutagenic call [5]: active; positive | mutagenic call [6]: active; positive
